According to patent US20240059689A1, “PURINE DERIVATIVES AS ANTICANCER AGENTS” (Tango Therapeutics, Inc., priority 2021, published 2024):

Legend:
[1] = molecular target: USP1-UAF1 (Homo sapiens, UniProt O94782); assay: Ubiquitin Rhodamine assay of USP1-UAF1 activity; assay type: biochemical
Protocol: Certain compounds of the disclosure were assessed for USP1-UAF1 activity in a Ubiquitin Rhodamine assay as described in Biology Example 1.

[2] = test system: MDA-MB-436; assay: Viability assay, BRCA1 mutant cell line MDA-MB-436; assay type: cell-based; conditions: Homo sapiens, MDA-MB-436, viability, BRCA1 mutant MDA-MB-436; read-out: MDA-MB-436 rel IC50
Source text: (§1) Table 1 also indicates IC50 values in a viability assay for a non-isogenic pair of BRCA1 mutant (column 5-MDA-MB-436) and BRCA1 WT (column 6—HCC1954) cell lines. These values indicate the effect of treatment with compound on cell survival.

[3] = test system: HCC1954; assay: Viability assay, BRCA1 WT cell line HCC1954; assay type: cell-based; conditions: Homo sapiens, HCC1954, viability, read-out: HCC1954 rel IC50
Source text: as §1

[4] = test system: monoubiquitinated PCNA; assay: AlphaLISA assay measuring monoubiquitinated PCNA in MDA-MB-436; assay type: cell-based; conditions: Homo sapiens, MDA-MB-436, monoubiquitinated PCNA, read-out: Alpha Lisa IC50
Source text: Table 1 also indicates IC50 values for exemplary compounds in an AlphaLISA assay measuring monoubiquitinated PCNA in a BRCA1 mutant cell line (MDA-MB-436; column 7).

Sequence of USP1-UAF1 (O94782 whole entry): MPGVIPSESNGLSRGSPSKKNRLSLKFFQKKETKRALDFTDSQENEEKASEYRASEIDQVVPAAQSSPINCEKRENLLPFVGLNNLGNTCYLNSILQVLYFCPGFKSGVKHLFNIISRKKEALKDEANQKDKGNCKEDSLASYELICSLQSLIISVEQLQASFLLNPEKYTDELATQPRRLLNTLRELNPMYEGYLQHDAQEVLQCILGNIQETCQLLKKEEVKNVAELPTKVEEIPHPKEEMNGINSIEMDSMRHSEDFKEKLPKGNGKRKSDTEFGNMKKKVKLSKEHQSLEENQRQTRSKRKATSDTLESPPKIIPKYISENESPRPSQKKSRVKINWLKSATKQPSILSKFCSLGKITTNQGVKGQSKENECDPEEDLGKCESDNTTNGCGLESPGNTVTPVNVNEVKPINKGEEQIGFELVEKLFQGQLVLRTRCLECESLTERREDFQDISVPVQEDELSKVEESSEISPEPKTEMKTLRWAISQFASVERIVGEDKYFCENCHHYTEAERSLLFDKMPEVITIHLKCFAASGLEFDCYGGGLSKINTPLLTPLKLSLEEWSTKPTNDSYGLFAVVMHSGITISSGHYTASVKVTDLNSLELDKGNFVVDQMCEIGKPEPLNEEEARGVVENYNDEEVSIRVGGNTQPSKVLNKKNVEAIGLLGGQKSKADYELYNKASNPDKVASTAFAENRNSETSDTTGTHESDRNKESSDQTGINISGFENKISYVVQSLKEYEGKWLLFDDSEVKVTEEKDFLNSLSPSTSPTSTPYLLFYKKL
Sequence of USP1-UAF1 (Q8TAF3 whole entry partner): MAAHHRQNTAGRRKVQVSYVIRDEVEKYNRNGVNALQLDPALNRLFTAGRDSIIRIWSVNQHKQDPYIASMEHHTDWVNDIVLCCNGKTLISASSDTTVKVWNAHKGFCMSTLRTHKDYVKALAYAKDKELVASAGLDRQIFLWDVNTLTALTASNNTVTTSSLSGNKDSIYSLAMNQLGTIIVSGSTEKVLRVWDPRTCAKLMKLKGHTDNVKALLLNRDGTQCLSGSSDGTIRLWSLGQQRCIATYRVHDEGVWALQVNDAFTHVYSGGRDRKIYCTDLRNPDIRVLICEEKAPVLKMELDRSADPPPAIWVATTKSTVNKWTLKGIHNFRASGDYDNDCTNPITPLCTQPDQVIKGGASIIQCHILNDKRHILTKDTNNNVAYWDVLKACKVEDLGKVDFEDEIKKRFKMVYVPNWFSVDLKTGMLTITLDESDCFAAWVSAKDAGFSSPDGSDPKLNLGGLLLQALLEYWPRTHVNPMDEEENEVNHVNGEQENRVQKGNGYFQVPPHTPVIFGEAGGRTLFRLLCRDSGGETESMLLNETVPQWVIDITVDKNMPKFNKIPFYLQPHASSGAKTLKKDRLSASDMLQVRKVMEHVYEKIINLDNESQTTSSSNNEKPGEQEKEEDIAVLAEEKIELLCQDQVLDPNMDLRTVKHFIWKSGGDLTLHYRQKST

SMILES | IC50 [1] | IC50 [2] | IC50 [3] | IC50 [4]
CC(C)c1ccccc1-c1nc(C(N)=O)c2c(n1)n(Cc1ccc(-c3nc(C(F)(F)F)cn3C)cc1)c(=N)n2C [Example A-41, 8-imino-2-(2-isopropylphenyl)-7-methyl-9-(4-(1-methyl-4-(trifluoromethyl)-1H-imidazol-2-yl)benzyl)-8,9-dihydro-7H-purine-6-carboxamide] | 30 to 100 nM | 250 to 10000 nM | 250 to 10000 nM | 250 to 10000 nM
C=C(C)c1ccc(F)cc1-c1nc(C)c2c(n1)n(Cc1ccc(-c3nc(C(F)(F)F)cn3C)cc1)c(=N)n2C [Example A-42, 2-(5-fluoro-2-(prop-1-en-2-yl)phenyl)-6,7-dimethyl-9-(4-(1-methyl-4-(trifluoromethyl)-1H-imidazol-2-yl)benzyl)-7,9-dihydro-8H-purin-8-imine] | 30 to 100 nM | 250 to 10000 nM | 250 to 10000 nM | 100 to 250 nM
C=C(C)c1ccc(F)cc1-c1nc(C)c2c(n1)n(Cc1ccc(-c3nc(Cl)cn3C)cc1)c(=N)n2C [Example A-44, 9-(4-(4-chloro-1-methyl-1H-imidazol-2-yl)benzyl)-2-(5-fluoro-2-(prop-1-en-2-yl)phenyl)-6,7-dimethyl-7,9-dihydro-8H-purin-8-imine] | 30 to 100 nM | 250 to 10000 nM | 250 to 10000 nM | 250 to 10000 nM
CC(C)c1ccccc1-c1ncc2c(n1)n(CC1CCN(c3nc(C(F)(F)F)cn3C)CC1)c(=N)n2C [Example B-1, 2-(2-isopropylphenyl)-7-methyl-9-((1-(1-methyl-4-(trifluoromethyl)-1H-imidazol-2-yl)piperidin-4-yl)methyl)-7H-purin-8(9H)-imine] | 100 to 10000 nM | 100 to 250 nM | 250 to 10000 nM | 100 to 250 nM
CC(C)c1ccccc1-c1ncc2c(n1)n(Cc1ccc(-c3nc(C(F)(F)F)cn3C)cc1)c(=N)n2C [Example B-2, 2-(2-isopropylphenyl)-7-methyl-9-(4-(1-methyl-4-(trifluoromethyl)-1H-imidazol-2-yl)benzyl)-7H-purin-8(9H)-imine] | < 30 nM | < 100 nM | ≥ 10000 nM | < 100 nM
Cn1cc(C(F)(F)F)nc1-c1ccc(Cn2c(=N)n(C)c3cnc(-c4ccccc4)nc32)cc1 [Example B-3, 7-methyl-9-(4-(1-methyl-4-(trifluoromethyl)-1H-imidazol-2-yl)benzyl)-2-phenyl-7,9-dihydro-8H-purin-8-imine] | 100 to 10000 nM | 250 to 10000 nM | 250 to 10000 nM | 250 to 10000 nM
C=C(C)c1ccccc1-c1ncc2c(n1)n(Cc1ccc(-c3nc(C(F)(F)F)cn3C)cc1)c(=N)n2C [Example B-4, 7-methyl-9-(4-(1-methyl-4-(trifluoromethyl)-1H-imidazol-2-yl)benzyl)-2-(2-(prop-1-en-2-yl)phenyl)-7,9-dihydro-8H-purin-8-imine] | < 30 nM | < 100 nM | ≥ 10000 nM | < 100 nM
Cn1cc(C(F)(F)F)nc1-c1ccc(Cn2c(=N)n(C)c3cnc(-c4c(Cl)cccc4Cl)nc32)cc1 [Example B-5, 2-(2,6-dichlorophenyl)-7-methyl-9-(4-(1-methyl-4-(trifluoromethyl)-1H-imidazol-2-yl)benzyl)-7,9-dihydro-8H-purin-8-imine] | < 30 nM | 100 to 250 nM | 250 to 10000 nM | 100 to 250 nM
Cn1cc(C(F)(F)F)nc1-c1ccc(Cn2c(=N)n(C)c3cnc(-c4ccccc4Cl)nc32)cc1 [Example B-8, 2-(2-chlorophenyl)-7-methyl-9-(4-(1-methyl-4-(trifluoromethyl)-1H-imidazol-2-yl)benzyl)-7,9-dihydro-8H-purin-8-imine] | 30 to 100 nM | 100 to 250 nM | ≥ 10000 nM | 100 to 250 nM
CC(C)c1c(F)cccc1-c1ncc2c(n1)n(Cc1ccc(-c3nc(C(F)(F)F)cn3C)cc1)c(=N)n2C [Example B-9, 2-(3-fluoro-2-isopropylphenyl)-7-methyl-9-(4-(1-methyl-4-(trifluoromethyl)-1H-imidazol-2-yl)benzyl)-7,9-dihydro-8H-purin-8-imine] | < 30 nM | < 100 nM | 250 to 10000 nM | < 100 nM
